# Reference: US20260294928A1, “BTK INHIBITOR FOR TREATING MULTIPLE SCLEROSIS” (BIOGEN MA INC., priority 2023, published 2026)
# Read-outs that look alike come from different tables or passages of the source.
# How the values were obtained:
# [1] = Part 1 PK study of BIIB091 formulations and regimens in healthy subjects; format: in vivo, human
# Protocol: (§1) In a single center, open-label study, several formulations and treatment regimens were explored to reduce pharmacokinetic (PK) variability and achieve steady state Ctrough>221 ng/mL while limiting the drug exposure (Cmax). The study included 3 parts.
# (§2) IR tablet (50 mg) was tested in 19 healthy subjects at different dose levels (150, 250 and 350 mg) and in the fed (moderate fat and high fat) and fasted state and as a divided daily dose (12 h apart). Subject were treated with BIIB091 up to 4 periods. To facilitate comparisons between different regimens, subjects were randomized into 2 groups (Group 1 and Group 2) pre-dose on Day 1 in Periods 1, 3 and 4. Period 2 was utilized as a reference period, where all subjects were dosed with the BIIB091 IR DiC (drug in capsule).
# CYP3A4 = CYP3A4 (Homo sapiens, UniProt P08684); assay: Part 2 PK of BIIB091 with CYP3A4 inhibitor itraconazole, fed; format: in vivo; settings: role: substrate, 200 mg BIIB091 IR tablet
# Protocol: (§3) A new cohort of 12 healthy male and female (non pregnant and non-lactating) subjects were enrolled and dosed. Subjects were randomized into two groups of 6 subjects, to receive the regimen sequence MNO across 3 study periods (Group 1) or regimen sequence MNP across 3 study periods (Group 2). Both groups were dosed in the fed state in Periods 1 and 2, i.e. BIIB091 alone in the fed state in Period 1, and BIIB091 with the CYP3A4 inhibitor itraconazole in the fed state in Period 2. For the PPI assessment in Period 3, subjects were dosed with BIIB091 co-administered with rabeprazole in the fasted or fed state in order to assess PK under each of these conditions.
# [2] = Part 1 safety and tolerability in healthy subjects; format: in vivo, human; settings: all regimens tested, Part 1 (150, 250, 350 mg; fed, fasted, divided dose)
# Protocol: as §1, §2
# [3] = Part 3 multiple dose PK, 250 mg BID x 7 days with moderate fat meal; format: in vivo, human; settings: 250 mg BID 12 h apart x 7 days
# Protocol: (§4) 250 mg BIIB091 was dosed in a new cohort of 10 healthy subjects twice a day (BID) 12 h apart with a moderate fat meal for 7 days. […] Geomean Ctau (CV %) was 407 (48.3%) ng/mL which exceeded the target of >221 ng/mL, with 9/10 subjects achieving the target.
# [4] = Part 2 PK of BIIB091 with PPI rabeprazole, fasted or fed; format: in vivo, human; settings: 200 mg BIIB091 IR tablet with rabeprazole 20 mg
# Protocol: as §3
# [5] = system: CD69 upregulation on total B cells (CD19+); assay: CD69 inhibition on ex vivo stimulated total B cells (CD19+), Part 3; format: in vivo, human; settings: for inhibition at 250 mg: Homo sapiens, B-cell, 250 mg BID
# Protocol: as §4
# CYP3A4, sequence (P08684 whole entry): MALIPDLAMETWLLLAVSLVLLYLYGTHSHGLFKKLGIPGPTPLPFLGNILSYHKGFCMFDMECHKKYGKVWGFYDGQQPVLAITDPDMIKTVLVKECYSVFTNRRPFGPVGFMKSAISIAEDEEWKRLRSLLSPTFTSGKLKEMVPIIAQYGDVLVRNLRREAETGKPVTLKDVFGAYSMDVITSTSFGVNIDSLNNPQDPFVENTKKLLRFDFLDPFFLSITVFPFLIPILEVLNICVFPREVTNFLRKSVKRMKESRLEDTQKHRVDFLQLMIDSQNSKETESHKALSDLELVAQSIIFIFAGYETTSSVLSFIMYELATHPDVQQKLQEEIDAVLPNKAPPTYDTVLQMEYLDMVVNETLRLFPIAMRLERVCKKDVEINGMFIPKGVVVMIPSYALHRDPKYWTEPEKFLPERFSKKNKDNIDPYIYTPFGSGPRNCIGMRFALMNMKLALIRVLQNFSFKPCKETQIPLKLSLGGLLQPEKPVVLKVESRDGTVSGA
compound,measurement,setting,value
"Cn1cc(Nc2nccc(-c3ccc4c(c3)CN(C3COC3)CC[C@H]4NC(=O)c3cn(C(C)(C)C)nn3)n2)cn1 [Compound 1, (R)-1-(tert-butyl)-N-(8-(2-((1-methyl-1H-pyrazol-4-yl)amino)pyrimidin-4-yl)-2-(oxetan-3-yl)-2,3,4,5-tetrahydro-1H-benzo[c]azepin-5-yl)-1H-1,2,3-triazole-4-carboxamide]",C (Cmax) with HF food,[1]; high fat food,reduced
same,T (Tmax) with HF food,[1]; high fat food,delayed
same,AUC with MF meal,[1]; moderate fat meal,similar
same,C with MF meal,[1]; moderate fat meal,similar
same,Tmax with MF meal compared to HF,[1]; moderate fat meal,less of a delay in Tmax compared to high fat
same,CYP3A4 substrate,"CYP3A4; fed, with itraconazole 200 mg",moderate CYP3A4 substrate
same,BIIB091 exposure with CYP3A4 inhibitor co-administration,"CYP3A4; inhibitor itraconazole 200 mg, moderate-fat fed",increased
same,safety and tolerability,[2],generally safe and well tolerated
same,accumulation ratio for AUCtau,[3],1.75
same,accumulation ratio for Cmax,[3],1.49
same,subjects achieving the target Ctau of >221 ng/mL,[3],9/10
same,concentration at 12 h,"[3]; human, in vivo, po, read-out: Geomean Ctau (CV %)",407 ng/mL
same,"BIIB091 bioavailability with PPI co-administration, fasted state",[4]; fasted,decreased
same,"BIIB091 bioavailability with PPI together with food, compared with fasted condition",[4]; moderate-fat fed,increased
same,CD69 inhibition at 24 h post final dose,"[5]; 250 mg BID x 7 days, 24 h post final dose",returned to baseline
same,inhibition at 250 mg,"[5]; 12 h post-dose, day 1, read-out: CD69 mean inhibition",86.8%
same,inhibition at 250 mg,"[5]; 12 h post-dose, day 7, read-out: CD69 mean inhibition",85.4%
same,inhibition at 250 mg,"[5]; Day 1 and 7, from 1 h to 8 h post-dose, ex vivo stimulated B cells, read-out: CD69 inhibition range",96.5 to 99.2%
same,inhibition at 250 mg,"[5]; Day 1 and 7, from 1 h to 8 h post-dose, ex vivo stimulated B cells, read-out: mean inhibition of CD69 upregulation from Day 1 pre-dose baseline",> 90%
